# From patent publication US20230085307A1, “PYRIDAZINONE COMPOUND AND HERBICIDE” (NISSAN CHEMICAL CORPORATION, priority 2019, published 2023)
# Assays:
# late watergrass = experiment: Test Example 1: herbicidal activity, application before weed generation under submerged conditions (Table 16, symbol A); type: in vivo, late watergrass (Echinochloa oryzicola); conditions: amount of applied herbicide 320 g/ha
# How it was run: (§1)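 Emulsion formulation, water-diluted to set dose, was put onto the flooded surface (4 cm depth, alluvial soil) the same day weeds were sown and 2.5-leaf rice transplanted. After 3 weeks at 25-30 °C under glass, each species was rated 0 (≤5% kill) to 5 (≥90% kill).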
# Japanese bulrush = experiment: Test Example 1: herbicidal activity, application before weed generation under submerged conditions (Table 16, symbol B); type: in vivo, Japanese bulrush (Schoenoplectus juncoides); conditions: amount of applied herbicide 320 g/ha
# How it was run: as §1
# oval-leafed pondweed = experiment: Test Example 1: herbicidal activity, application before weed generation under submerged conditions (Table 16, symbol C); type: in vivo, oval-leafed pondweed (Monochoria vaginalis); conditions: amount of applied herbicide 320 g/ha
# How it was run: as §1
# barnyard grass [1] = experiment: Test Example 3: herbicidal effect by foliage application, Wagner pot (Table 18, symbol H); type: in vivo, barnyard grass (Echinochloa crus-galli)
# How it was run: (§2)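 Plants were sown in alluvial soil held under 0.1–0.5 cm standing water and grown 14 days in a greenhouse at 25–30 °C. An emulsifiable formulation, water-diluted to the set dose, was then sprayed onto the foliage, and effects were scored three weeks later using previously defined criteria.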
# Chinese sprangletop = experiment: Test Example 3: herbicidal effect by foliage application, Wagner pot (Table 18, symbol D); type: in vivo, chinese sprangletop (Leptochloa chinensis)
# How it was run: as §2
# rice flat sedge = experiment: Test Example 3: herbicidal effect by foliage application, Wagner pot (Table 18, symbol E); type: in vivo, rice flat sedge (Cyperus iria)
# How it was run: as §2
# southern crabgrass [2] = experiment: Test Example 4: herbicidal effect by soil treatment (Table 19, symbol F); type: in vivo, southern crabgrass (Digitaria ciliaris); conditions: amount of applied herbicide 320 g/ha
# How it was run: (§3)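 Emulsion of test compound, water-diluted to predetermined amount, sprayed on soil after sowing (seed depth ~1.5 cm, sterilized diluvial soil). Greenhouse, 25–30° C. Effect graded at three weeks post-spray.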
# green foxtail [3] = experiment: Test Example 4: herbicidal effect by soil treatment (Table 19, symbol G); type: in vivo, green foxtail (Setaria viridis); conditions: amount of applied herbicide 320 g/ha
# How it was run: as §3
# barnyard grass [4] = experiment: Test Example 4: herbicidal effect by soil treatment (Table 19, symbol H); type: in vivo, barnyard grass (Echinochloa crus-galli); conditions: amount of applied herbicide 320 g/ha
# How it was run: as §3
# wild oat [5] = experiment: Test Example 4: herbicidal effect by soil treatment (Table 19, symbol I); type: in vivo, wild oat (Avena fatua); conditions: amount of applied herbicide 320 g/ha
# How it was run: as §3
# blackgrass [6] = experiment: Test Example 4: herbicidal effect by soil treatment (Table 19, symbol J); type: in vivo, blackgrass (Alopecurus myosuroides); conditions: amount of applied herbicide 320 g/ha
# How it was run: as §3
# Italian ryegrass [7] = experiment: Test Example 4: herbicidal effect by soil treatment (Table 19, symbol K); type: in vivo, Italian ryegrass (Lolium multiflorum); conditions: amount of applied herbicide 320 g/ha
# How it was run: as §3
# windgrass [8] = experiment: Test Example 4: herbicidal effect by soil treatment (Table 19, symbol L); type: in vivo, windgrass (Apera spica-venti); conditions: amount of applied herbicide 320 g/ha
# How it was run: as §3
# velvetleaf [9] = experiment: Test Example 4: herbicidal effect by soil treatment (Table 19, symbol M); type: in vivo, velvetleaf (Abutilon theophrasti); conditions: amount of applied herbicide 320 g/ha
# How it was run: as §3
# redroot pigweed [10] = experiment: Test Example 4: herbicidal effect by soil treatment (Table 19, symbol N); type: in vivo, redroot pigweed (Amaranthus retroflexus); conditions: amount of applied herbicide 320 g/ha
# How it was run: as §3
# lambsquarters [11] = experiment: Test Example 4: herbicidal effect by soil treatment (Table 19, symbol O); type: in vivo, lambsquarters (Chenopodium album); conditions: amount of applied herbicide 320 g/ha
# How it was run: as §3
# chickweed [12] = experiment: Test Example 4: herbicidal effect by soil treatment (Table 19, symbol P); type: in vivo, common chickweed (Stellaria media); conditions: amount of applied herbicide 320 g/ha
# How it was run: as §3
# persian speedwell [13] = experiment: Test Example 4: herbicidal effect by soil treatment (Table 19, symbol R); type: in vivo, Persian speedwell (Veronica persica); conditions: amount of applied herbicide 320 g/ha
# How it was run: as §3
# southern crabgrass [14] = experiment: Test Example 5: herbicidal effect by foliage application, plastic box (Table 20, symbol F); type: in vivo, southern crabgrass (Digitaria ciliaris)
# How it was run: (§4)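 Post-emergence foliar test in sterilized diluvial soil. Compound applied as water-diluted emulsion at a predetermined rate to 14-day-old plants; evaluation at three weeks.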
# green foxtail [15] = experiment: Test Example 5: herbicidal effect by foliage application, plastic box (Table 20, symbol G); type: in vivo, green foxtail (Setaria viridis)
# How it was run: as §4
# barnyard grass [16] = experiment: Test Example 5: herbicidal effect by foliage application, plastic box (Table 20, symbol H); type: in vivo, barnyard grass (Echinochloa crus-galli)
# How it was run: as §4
# wild oat [17] = experiment: Test Example 5: herbicidal effect by foliage application, plastic box (Table 20, symbol I); type: in vivo, wild oat (Avena fatua)
# How it was run: as §4
# blackgrass [18] = experiment: Test Example 5: herbicidal effect by foliage application, plastic box (Table 20, symbol J); type: in vivo, blackgrass (Alopecurus myosuroides)
# How it was run: as §4
# Italian ryegrass [19] = experiment: Test Example 5: herbicidal effect by foliage application, plastic box (Table 20, symbol K); type: in vivo, Italian ryegrass (Lolium multiflorum)
# How it was run: as §4
# windgrass [20] = experiment: Test Example 5: herbicidal effect by foliage application, plastic box (Table 20, symbol L); type: in vivo, windgrass (Apera spica-venti)
# How it was run: as §4
# velvetleaf [21] = experiment: Test Example 5: herbicidal effect by foliage application, plastic box (Table 20, symbol M); type: in vivo, velvetleaf (Abutilon theophrasti)
# How it was run: as §4
# redroot pigweed [22] = experiment: Test Example 5: herbicidal effect by foliage application, plastic box (Table 20, symbol N); type: in vivo, redroot pigweed (Amaranthus retroflexus)
# How it was run: as §4
# lambsquarters [23] = experiment: Test Example 5: herbicidal effect by foliage application, plastic box (Table 20, symbol O); type: in vivo, lambsquarters (Chenopodium album)
# How it was run: as §4
# chickweed [24] = experiment: Test Example 5: herbicidal effect by foliage application, plastic box (Table 20, symbol P); type: in vivo, common chickweed (Stellaria media)
# How it was run: as §4
# false cleavers = experiment: Test Example 5: herbicidal effect by foliage application, plastic box (Table 20, symbol Q); type: in vivo, false cleavers (Galium spurium)
# How it was run: as §4
# persian speedwell [25] = experiment: Test Example 5: herbicidal effect by foliage application, plastic box (Table 20, symbol R); type: in vivo, Persian speedwell (Veronica persica)
# How it was run: as §4
# [26] = amount of applied herbicide 320 g/ha
# [27] = foliage application, 320 g/ha, three weeks after application
# [28] = amount of applied herbicide 320 g/ha, foliage application after 14-day growth, evaluated three weeks after application
smiles,measurement,setting,value
Cc1nn(Cc2ccccc2)c(=O)c(-c2c(-c3ccc(F)cc3)sc3ccc(F)cc23)c1O [2-432],"Herbicidal effect, A: late watergrass",late watergrass,2 (Herbicidal rate of 20% or more and less than 40%)
same,"Herbicidal effect, B: Japanese bulrush",Japanese bulrush,0 (Herbicidal rate of 5% or less (almost no effect))
same,"Herbicidal effect, C: oval-leafed pondweed",oval-leafed pondweed,0 (Herbicidal rate of 5% or less (almost no effect))
same,herbicidal effect on H: barnyard grass,barnyard grass [1]; [26],3 (Herbicidal rate of 40% or more and less than 70%)
same,herbicidal effect on D: Chinese sprangletop,Chinese sprangletop; [26],0 (Herbicidal rate of 5% or less (almost no effect))
same,herbicidal effect on E: rice flat sedge,rice flat sedge; [26],2 (Herbicidal rate of 20% or more and less than 40%)
same,"herbicidal effect, F: southern crabgrass",southern crabgrass [2],0 (Herbicidal rate of 5% or less (almost no effect))
same,"herbicidal effect, G: green foxtail",green foxtail [3],1 (Herbicidal rate of 5% or more and less than 20%)
same,"herbicidal effect, H: barnyard grass",barnyard grass [4],0 (Herbicidal rate of 5% or less (almost no effect))
same,"herbicidal effect, I: wild oat",wild oat [5],0 (Herbicidal rate of 5% or less (almost no effect))
same,"herbicidal effect, J: blackgrass",blackgrass [6],0 (Herbicidal rate of 5% or less (almost no effect))
same,"herbicidal effect, K: Italian ryegrass",Italian ryegrass [7],0 (Herbicidal rate of 5% or less (almost no effect))
same,"herbicidal effect, L: windgrass",windgrass [8],0 (Herbicidal rate of 5% or less (almost no effect))
same,"herbicidal effect, M: velvetleaf",velvetleaf [9],0 (Herbicidal rate of 5% or less (almost no effect))
same,"herbicidal effect, N: redroot pigweed",redroot pigweed [10],3 (Herbicidal rate of 40% or more and less than 70%)
same,"herbicidal effect, O: lambsquarters",lambsquarters [11],2 (Herbicidal rate of 20% or more and less than 40%)
same,"herbicidal effect, P: chickweed",chickweed [12],0 (Herbicidal rate of 5% or less (almost no effect))
same,"herbicidal effect, R: persian speedwell",persian speedwell [13],0 (Herbicidal rate of 5% or less (almost no effect))
same,"F: southern crabgrass, herbicidal effect grade",southern crabgrass [14]; [27],3 (Herbicidal rate of 40% or more and less than 70%)
same,"G: green foxtail, herbicidal effect grade",green foxtail [15]; [27],0 (Herbicidal rate of 5% or less (almost no effect))
same,"H: barnyard grass, herbicidal effect grade",barnyard grass [16]; [27],1 (Herbicidal rate of 5% or more and less than 20%)
same,"I: wild oat, herbicidal effect grade",wild oat [17]; [27],0 (Herbicidal rate of 5% or less (almost no effect))
same,"J: blackgrass, herbicidal effect grade",blackgrass [18]; [27],0 (Herbicidal rate of 5% or less (almost no effect))
same,"K: Italian ryegrass, herbicidal effect grade",Italian ryegrass [19]; [27],0 (Herbicidal rate of 5% or less (almost no effect))
same,"L: windgrass, herbicidal effect grade",windgrass [20]; [27],0 (Herbicidal rate of 5% or less (almost no effect))
same,"M: velvetleaf, herbicidal effect grade",velvetleaf [21]; [27],1 (Herbicidal rate of 5% or more and less than 20%)
same,"N: redroot pigweed, herbicidal effect grade",redroot pigweed [22]; [27],5 (Herbicidal rate of 90% or more (almost completely withered))
same,"O: lambsquarters, herbicidal effect grade",lambsquarters [23]; [27],2 (Herbicidal rate of 20% or more and less than 40%)
same,"P: chickweed, herbicidal effect grade",chickweed [24]; [27],5 (Herbicidal rate of 90% or more (almost completely withered))
same,"Q: false cleavers, herbicidal effect grade",false cleavers; [27],3 (Herbicidal rate of 40% or more and less than 70%)
same,"R: persian speedwell, herbicidal effect grade",persian speedwell [25]; [27],5 (Herbicidal rate of 90% or more (almost completely withered))
Cc1nn(C)c(=O)c(-c2c(-c3ccc(F)cc3)sc3cc(F)c(F)cc23)c1O [5-001],"Herbicidal effect, A: late watergrass",late watergrass,3 (Herbicidal rate of 40% or more and less than 70%)
same,"Herbicidal effect, B: Japanese bulrush",Japanese bulrush,1 (Herbicidal rate of 5% or more and less than 20%)
same,"Herbicidal effect, C: oval-leafed pondweed",oval-leafed pondweed,0 (Herbicidal rate of 5% or less (almost no effect))
same,herbicidal effect on barnyard grass (H),barnyard grass [1]; 320 g/ha,4 (Herbicidal rate of 70% or more and less than 90%)
same,herbicidal effect on Chinese sprangletop (D),Chinese sprangletop; 320 g/ha,3 (Herbicidal rate of 40% or more and less than 70%)
same,herbicidal effect on rice flat sedge (E),rice flat sedge; 320 g/ha,5 (Herbicidal rate of 90% or more (almost completely withered))
same,"F: southern crabgrass, herbicidal effect grade",southern crabgrass [2],5 (Herbicidal rate of 90% or more (almost completely withered))
same,"G: green foxtail, herbicidal effect grade",green foxtail [3],5 (Herbicidal rate of 90% or more (almost completely withered))
same,"H: barnyard grass, herbicidal effect grade",barnyard grass [4],0 (Herbicidal rate of 5% or less (almost no effect))
same,"I: wild oat, herbicidal effect grade",wild oat [5],3 (Herbicidal rate of 40% or more and less than 70%)
same,"J: blackgrass, herbicidal effect grade",blackgrass [6],4 (Herbicidal rate of 70% or more and less than 90%)
same,"K: Italian ryegrass, herbicidal effect grade",Italian ryegrass [7],5 (Herbicidal rate of 90% or more (almost completely withered))
same,"L: windgrass, herbicidal effect grade",windgrass [8],5 (Herbicidal rate of 90% or more (almost completely withered))
same,"M: velvetleaf, herbicidal effect grade",velvetleaf [9],4 (Herbicidal rate of 70% or more and less than 90%)
same,"N: redroot pigweed, herbicidal effect grade",redroot pigweed [10],5 (Herbicidal rate of 90% or more (almost completely withered))
same,"O: lambsquarters, herbicidal effect grade",lambsquarters [11],5 (Herbicidal rate of 90% or more (almost completely withered))
same,"P: chickweed, herbicidal effect grade",chickweed [12],4 (Herbicidal rate of 70% or more and less than 90%)
same,"R: persian speedwell, herbicidal effect grade",persian speedwell [13],5 (Herbicidal rate of 90% or more (almost completely withered))
same,"Herbicidal effect by foliage application, F: southern crabgrass",southern crabgrass [14]; [28],5 (Herbicidal rate of 90% or more (almost completely withered))
same,"Herbicidal effect by foliage application, G: green foxtail",green foxtail [15]; [28],5 (Herbicidal rate of 90% or more (almost completely withered))
same,"Herbicidal effect by foliage application, H: barnyard grass",barnyard grass [16]; [28],4 (Herbicidal rate of 70% or more and less than 90%)
same,"Herbicidal effect by foliage application, I: wild oat",wild oat [17]; [28],4 (Herbicidal rate of 70% or more and less than 90%)
same,"Herbicidal effect by foliage application, J: blackgrass",blackgrass [18]; [28],4 (Herbicidal rate of 70% or more and less than 90%)
same,"Herbicidal effect by foliage application, K: Italian ryegrass",Italian ryegrass [19]; [28],5 (Herbicidal rate of 90% or more (almost completely withered))
same,"Herbicidal effect by foliage application, L: windgrass",windgrass [20]; [28],5 (Herbicidal rate of 90% or more (almost completely withered))
same,"Herbicidal effect by foliage application, M: velvetleaf",velvetleaf [21]; [28],5 (Herbicidal rate of 90% or more (almost completely withered))
same,"Herbicidal effect by foliage application, N: redroot pigweed",redroot pigweed [22]; [28],5 (Herbicidal rate of 90% or more (almost completely withered))
same,"Herbicidal effect by foliage application, O: lambsquarters",lambsquarters [23]; [28],5 (Herbicidal rate of 90% or more (almost completely withered))
same,"Herbicidal effect by foliage application, P: chickweed",chickweed [24]; [28],5 (Herbicidal rate of 90% or more (almost completely withered))
same,"Herbicidal effect by foliage application, Q: false cleavers",false cleavers; [28],5 (Herbicidal rate of 90% or more (almost completely withered))
same,"Herbicidal effect by foliage application, R: persian speedwell",persian speedwell [25]; [28],5 (Herbicidal rate of 90% or more (almost completely withered))
